The target of one test is T1, SHP-2 (SH2-SH2) (Homo sapiens, UniProt Q06124).
T1 construct: OPPF catalogue number 3911; aa 2–219, EC = 23,045 M^−1 cm^−1; His-tag; host or cells: E. coli BL21(DE3)pLysS
T1 sequence (Q06124 2-219): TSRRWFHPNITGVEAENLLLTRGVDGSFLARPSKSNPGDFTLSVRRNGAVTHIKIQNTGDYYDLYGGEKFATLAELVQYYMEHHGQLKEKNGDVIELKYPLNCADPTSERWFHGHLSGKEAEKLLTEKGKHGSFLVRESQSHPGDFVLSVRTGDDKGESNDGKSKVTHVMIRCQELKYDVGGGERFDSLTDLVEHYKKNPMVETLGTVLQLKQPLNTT
Nature of the test: SPR binding of SHP-2 tandem (N+C) SH2 domains to immobilised phosphopeptides. The settings on record: 37°C, SHP2 N+C SH2, equilibrium binding fit shown in Figure 6D. An excerpt: Biotinylated EAT-2 was produced by expression of full length human EAT-2 with a C-terminal BirA tag ([…]) in the E coli expression vector pTrcHisA. Constructs encoding the 6xHis-tagged tandem SH2 domains plus the SH3 domains of PLCγ1 (Swiss-Prot: P19174, aa 536–863) and PLCγ2 (Swiss-Prot: P16885, aa 519–838) were generated in pTrcHisA (5′ joining sequence with BglII site underlined: gag atc tcc translates as EIS). The molecular weight (MW) and theoretical extinction coefficients (EC) of recombinant PLCγ1 and PLCγ2 SH2-SH2-SH3 domains were PLCγ1; MW = 42531, EC = 63,830 M^−1 cm^−1 and PLCγ2; MW = 42415, EC = 67,270 M^−1 cm^−1.
Measurements of protein-protein affinity were performed on BIAcore 3000 and T200 systems using CM5 or biotin capture chips (GE Healthcare Ltd, UK). Streptavidin was coupled to CM5 sensor chips using standard NHS/EDC chemical linkage, followed by immobilization of biotinylated peptides. […] Equilibrium binding coefficients and dissociation and association rates were calculated using BIAevaluation and/or GraphPad Prism 5.4 software.
Binding of inhibitory tyrosine phosphatases through their SH2 domains to ITIMs is enhanced by phosphorylation of two tyrosine motifs which are appropriately spaced. […] We measured binding of SHP-2 tandem SH2 domains (recombinant SHP-1 SH2 domains were unstable in solution) to tandem ITSMs in CD244 (Figure 6B and Table 4). […]

In another test the test system is EAT-2. To be noted: ref [30]; cited from earlier work. An excerpt: The specificities of their SH2 domains overlap, introducing the concept of competition between them for ITSMs in cells where they are co-expressed, including NK cells.
Test [1] is described as follows: Pull-down with EAT-2 Y127 phosphopeptide from NK92 lysates, LC-MS/MS. It is filed as binding, human. To be noted: NK92 cell lysates. On the procedure: (§1) For pull-down of associated proteins, streptavidin Sepharose (GE Healthcare) was pre-coated with saturating amounts of peptide or EAT-2. NK92 cells (4×10^8) were treated with 500 μM pervanadate for 15 minutes, then lysed in PBS, 1% Triton X-100, 1 mM sodium orthovanadate in the presence of mammalian protease inhibitor solution (Sigma). Lysates were pre-cleared by centrifugation, followed by incubation with streptavidin Sepharose. Peptide or EAT-2-coated streptavidin beads were incubated with NK92 lysates for 2 hours at 4°C with rotation. Beads were washed once with 15 ml ice cold PBS/1% (v/v) Triton X-100. Bound protein was eluted using 100 mM glycine-HCl pH 2.5.
Protein samples were prepared for mass spectrometry as described previously. Briefly, eluted proteins were spun onto the membranes of Vivacon 500 filters (10,000 MWCO – Sartorius). Membranes were washed once with PBS then proteins were denatured with 8 M urea, reduced with 10 mM DTT in 25 mM ammonium bicarbonate buffer, followed by alkylation with 50 mM iodoacetamide. Proteins were then digested overnight with trypsin. Tryptic peptides were then eluted from the membrane and analyzed on an Ultimate 3000 HPLC-coupled Orbitrap XL mass spectrometer. […] Raw data files were converted to mzXML format using ReADW (v. 4.2.1) and submitted to the Central Proteomics Facilities Pipeline for database comparison and peptide identification. […]

A short description of test [2]: Pull-down with phosphorylated CD244 ITSM1 from NK cell lysates, LC-MS/MS. The class given is binding. To be noted: human NK cell lysates; compared with control phosphopeptide SHIP-1 Y865. The protocol: as §1
Protein samples were prepared for mass spectrometry as described previously. Briefly, eluted proteins were spun onto the membranes of Vivacon 500 filters (10,000 MWCO – Sartorius). Membranes were washed once with PBS then proteins were denatured with 8 M urea, reduced with 10 mM DTT in 25 mM ammonium bicarbonate buffer, followed by alkylation with 50 mM iodoacetamide. Proteins were then digested overnight with trypsin. Tryptic peptides were then eluted from the membrane and analyzed on an Ultimate 3000 HPLC-coupled Orbitrap XL mass spectrometer. Proteins were identified by liquid chromatography-coupled tandem mass-spectrometry (LC-MS/MS). Raw data files were converted to mzXML format using ReADW (v. 4.2.1) and submitted to the Central Proteomics Facilities Pipeline for database comparison and peptide identification. Searching against the International Protein Index (IPI) human protein sequence database for protein identification, protein and peptide hits were statistically validated by applying a 1% false discovery rate (FDR) by searching against a concatenated target/decoy database. Datasets were searched with variable peptide modifications for phosphotyrosine, phosphoserine, phosphothreonine, oxidation of methionine and deamination.
Protein identification data were exported into ProteinCenter (v3.8.3013 – Thermo Fisher) for filtering and annotation. Results were filtered to remove any proteins with less than 3 unique peptides, less than 10 percent sequence coverage, or median protein probability scores less than 0.5. To establish sample specificity, any protein with at least 10-fold greater sequence coverage in one sample compared with the other was considered to be specific for that sample.
Similarly, differences in specificity of inhibitory SH2 domain containing proteins for ITSMs are relevant to understanding mechanisms of inhibition by ITSMs. We focused on CD244 ITSMs to establish general paradigms.

The subject of the next test is NK92 cells. Nature of the test: IFNγ production by NK92 cells. The class given is cell-based, human. To be noted: TJW, unpublished.

Non-standard residues stand in square brackets, D forms with d. Residues, ends and D or L forms follow the SMILES beside them. *: point of attachment. Biotin = O=C1N[C@H]2[C@H](CS[C@H]2CCCCC(=O)*)N1; pY = N[C@@H](Cc1ccc(OP(=O)(O)O)cc1)C(=O)O

The term Kd denotes the free concentration of one partner at which half of the binding sites on the other are occupied at equilibrium, for simple one-to-one binding. As for `CC[C@H](C)[C@H](NC(=O)[C@H](CCSC)NC(=O)[C@H](CO)NC(=O)[C@H](Cc1ccc(OP(=O)(O)O)cc1)NC(=O)[C@@H](NC(=O)[C@@H](NC(=O)[C@H](CO)NC(=O)CNC(=O)CNC(=O)CNC(=O)[C@@H]1CCCN1C(=O)[C@H](Cc1ccccc1)NC(=O)[C@@H](NC(=O)[C@H](CCC(N)=O)NC(=O)[C@H](CCC(=O)O)NC(=O)[C@H](CCC(N)=O)NC(=O)[C@H](CCC(=O)O)NC(=O)[C@H](Cc1c[nH]cn1)NC(=O)[C@H](CC(N)=O)NC(=O)[C@H](CCCNC(=N)N)NC(=O)[C@H](CCCNC(=N)N)NC(=O)[C@@H](NC(=O)[C@H](CCCCN)NC(=O)[C@H](CC(C)C)NC(=O)[C@H](CC(=O)O)NC(=O)[C@H](CCCCN)NC(=O)[C@@H](NC(=O)[C@H](CC(=O)O)NC(=O)[C@H](CCC(=O)O)NC(=O)[C@H](Cc1ccc(OP(=O)(O)O)cc1)NC(=O)[C@@H](NC(=O)[C@@H](NC(=O)[C@H](CC(C)C)NC(=O)[C@H](Cc1ccccc1)NC(=O)[C@H](CCC(=O)O)NC(=O)CCCC[C@@H]1SC[C@@H]2NC(=O)N[C@@H]21)[C@@H](C)O)[C@@H](C)CC)C(C)C)[C@@H](C)O)[C@@H](C)O)[C@@H](C)O)[C@@H](C)CC)C(=O)N[C@@H](CCC(N)=O)C(=O)N[C@@H](CO)C(=O)O` [CD244 ITSM1+ITSM2] (Biotin-EFLTI[pY]EDVKDLKTRRNHEQEQTFPGGGSTI[pY]SMIQS-OH), at SHP-2 (SH2-SH2), the Kd worked out at 2.4 µM.

As to “ADYDTI [mouse CRACC tyrosine motif in the equivalent position to human CRACC ITSM1]”, the “binding of EAT-2 to mouse CRACC motif” value in the test with EAT-2 is “did not bind EAT-2”. For the molecule Fyn: Src-family kinase, the “pull-down by EAT-2 Y127” value in test [1] was “Notably absent from this list”. For the molecule PLCγ1: phospholipase C gamma-1, in test [2], the “pull-down by CD244 ITSM1” value was “pulled down by the ITSM peptide”. In the test on NK92 cells, the “effect on IFNγ production by NK92 cells” value is “inhibitory”.
